Test results reported in patent publication US7045343B2, “Sterilization indicator test packs” (3M Innovative Properties Company, priority 1998, dated 2006).

Experiments:
[1] = test system: Bacillus stearothermophilus spores; test: Spore outgrowth (color change) of indicators after prevacuum steam sterilization; format: cell-based; conditions: 4-pulse prevacuum steam 121° C.
Method: (§1) The indicators prepared for the Examples were dual rapid readout indicators that provided both a rapid, enzyme-based efficacy test and a confirmatory spore outgrowth test. Spores coated on the carrier strip 16 served as the source of active enzyme whose activity was measured by the rapid enzyme test. These same spores were then incubated in the spore outgrowth portion of the test.
(§2) Bacillus stearothermophilus, commercially available as ATCC 7953 from American Type Culture Collection, Rockville, Md., was grown overnight (16 hours) at 58° C. in tryptic soy broth. This culture was used to inoculate the surface of agar plates consisting of 8 g/l nutrient broth, 4 g/l yeast extract, 0.1 g/l manganese chloride and 20 g/l agar at pH 7.2. Plates were incubated at 58° C. for 72 hours. Spores were scraped from the plates and suspended in sterile distilled water. The spores were separated from the vegetative debris by centrifuging the suspension at 7000 rpm and 4° C. for 20 minutes. The supernatant was poured off and the spores were resuspended in sterile distilled water. The cleaning procedure was repeated several times. After the final wash, the spores were suspended in sterile distilled water, at a concentration of approximately 1×10^8 spores per milliliter.
(§3) The spores were then treated with the chemicals identified in Tables 1–5. All chemicals tested were obtained from commercial sources. The spores were centrifuged at 6000 rpm for 10 minutes. The supernatant and coating chemical mixtures were heated at 60–80° C. for several minutes and vortexed to get the material into solution. The spores were then mixed into the sterilant-resistant chemical solution. The sterilant-resistant chemical solution was applied to 5×25 mm, 591 A paper strips (Schleicher & Schuell, Inc., Keene, N.H.) by pipetting 10–15 microliters to each strip for a final population of about 1×10^6 spores per strip. The strips were dried 16 hours at 37° C.
(§4) The treated spore strips were placed on the bottom of the outer container 12 of the indicator 10 and a barrier was inserted between the spore strip 16 and the inner container 18, which contained enzyme substrate. A […] ( 11/16 inch) disc of polypropylene blown microfiber material, with a weight of 200 g/m^2, commercially available as “THINSULATE™ 200-B brand Thermal Insulation” from 3M Company, St. Paul, Minn., was used as the barrier. The inner container 18 contained 0.67 ml nutrient medium, consisting of 17 g of a bacteriological peptone and a 0.17 g/l of L-alanine, as well as 0.1 g 4-methylumbelliferyl-alpha-D-glucoside, commercially available from Sigma Chemical Company, St. Louis, Mo., dissolved in 200 microliters of N,N-dimethylformamide, and 0.03 g bromocresol purple pH indicator dye, per liter of water. The pH of the enzyme substrate and nutrient medium solution was adjusted to 7.6 with 0.1N sodium hydroxide.
(§5) Sterilization indicators were made as described above with each of the chemicals and concentrations described in Table 1. Control indicators were made using untreated spores. The indicators were placed in metal instrument trays and exposed at 121° C. in a Getinge Steam Sterilizer (Getinge International, Inc., 1100 Towbin Ave., Lakewood, N.J.) using a 4-pulse prevacuum cycle at 121° C. with a vacuum level of 0.075–0.085 bar and a steam pulse to 1.00 bar for each pulse. Indicators were exposed in the sterilizer for between 7 and 13 minutes. This cycle is depicted in the time-pressure diagram in FIG. 5. After exposure the inner containers containing the enzyme substrate and nutrient medium were crushed and the indicators were incubated at 60° C. The indicators were examined for fluorescence using a 3M™ ATTEST™ Model 190 Rapid Autoreader, commercially available from 3M Company, St. Paul, Minn. Additionally, spore growth, as indicated by a color change from purple to yellow, was determined visually after 168 hours of incubation at 60° C. […]

[2] = test system: enzyme associated with Bacillus stearothermophilus spores; test: Rapid enzyme fluorescence readout of dual rapid readout indicators after prevacuum steam sterilization; format: biochemical; conditions: 4-pulse prevacuum steam 121° C.
Method: as §1, §2, §3, §4, §5

[3] = Example 5, 50 mg/ml coating, 7–13 min
[4] = Example 5, 100 mg/ml coating, 7–13 min
[5] = Example 4, 50 mg/ml coating, 7–18 min
[6] = Example 4, 100 mg/ml coating, 7–18 min
[7] = Example 2, 5 mg/ml coating, 7–13 min
[8] = Example 2, 10 mg/ml coating, 7–13 min
[9] = Example 2, 20 mg/ml coating, 7–13 min
[10] = Example 2, 40 mg/ml coating, 7–13 min
[11] = Example 2, 80 mg/ml coating, 7–13 min

With Decaglyceryl Monoisostearate the “NO. GROWTH POSITIVE 168 HR” value [1, 3] was 9, the “NO. GROWTH POSITIVE 168 HR” value [1, 4] was 8 and the “accuracy of sterilization indicators compared to indicators made with untreated spores” value [2] was “improved”. The “FLUORESCENCE - PERCENT POSITIVE 1 HR” value [2, 3] was 33.3%, the “FLUORESCENCE - PERCENT POSITIVE 2 HR” value [2, 3] was 77.8% and the “FLUORESCENCE - PERCENT POSITIVE 3 HR” value [2, 3] was 88.9%. The “FLUORESCENCE - PERCENT POSITIVE 4 HR” value [2, 3] was 88.9%, the “FLUORESCENCE - PERCENT POSITIVE 1 HR” value [2, 4] was 37.5% and the “FLUORESCENCE - PERCENT POSITIVE 2 HR” value [2, 4] was 100%. For the same compound, the “FLUORESCENCE - PERCENT POSITIVE 3 HR” value [2, 4] was 100% and the “FLUORESCENCE - PERCENT POSITIVE 4 HR” value [2, 4] was 100%.
In the case of POE(10) Phytosterol, the “NO. GROWTH POSITIVE 168 HR” value [1, 3] is reported as 2, the “FLUORESCENCE - PERCENT POSITIVE 1 HR” value [2, 3] is reported as 0% and the “FLUORESCENCE - PERCENT POSITIVE 2 HR” value [2, 3] is reported as 0%. For the same compound, the “FLUORESCENCE - PERCENT POSITIVE 3 HR” value [2, 3] was 0% and the “FLUORESCENCE - PERCENT POSITIVE 4 HR” value [2, 3] was 0%.
With Hexaglyceryl Monolaurate the “NO. GROWTH POSITIVE 168 HR” value [1, 5] was 7, the “NO. GROWTH POSITIVE 168 HR” value [1, 6] was 20 and the “accuracy of sterilization indicators compared to indicators made with untreated spores” value [2] was “improved”. For the same compound, the “FLUORESCENCE - PERCENT POSITIVE 1 HR” value [2, 5] was 0%, the “FLUORESCENCE - PERCENT POSITIVE 2 HR” value [2, 5] was 28.6% and the “FLUORESCENCE - PERCENT POSITIVE 3 HR” value [2, 5] was 57.1%. The “FLUORESCENCE - PERCENT POSITIVE 4 HR” value [2, 5] was 71.4%, the “FLUORESCENCE - PERCENT POSITIVE 1 HR” value [2, 6] was 90.0% and the “FLUORESCENCE - PERCENT POSITIVE 2 HR” value [2, 6] was 100.0%. For the same compound, the “FLUORESCENCE - PERCENT POSITIVE 3 HR” value [2, 6] was 100.0% and the “FLUORESCENCE - PERCENT POSITIVE 4 HR” value [2, 6] was 100.0%.
In the case of “polyoxyethylene (5) glyceryl monostearate [POE (5) Glyceryl Monostearate]”, the “NO. GROWTH POSITIVE 168 HR” value [1, 3] is reported as 15, the “NO. GROWTH POSITIVE 168 HR” value [1, 4] is reported as 5 and the “accuracy of sterilization indicators compared to indicators made with untreated spores” value [2] is reported as “improved”. For the same compound, the “FLUORESCENCE - PERCENT POSITIVE 1 HR” value [2, 3] was 0%, the “FLUORESCENCE - PERCENT POSITIVE 2 HR” value [2, 3] was 100.0% and the “FLUORESCENCE - PERCENT POSITIVE 3 HR” value [2, 3] was 100.0%. The “FLUORESCENCE - PERCENT POSITIVE 4 HR” value [2, 3] was 100.0%, the “FLUORESCENCE - PERCENT POSITIVE 1 HR” value [2, 4] was 0% and the “FLUORESCENCE - PERCENT POSITIVE 2 HR” value [2, 4] was 100%. For the same compound, the “FLUORESCENCE - PERCENT POSITIVE 3 HR” value [2, 4] was 100% and the “FLUORESCENCE - PERCENT POSITIVE 4 HR” value [2, 4] was 100%.
With POE(60) Sorbitol Tetraoleate the “NO. GROWTH POSITIVE 168 HR” value [1, 3] was 2, the “NO. GROWTH POSITIVE 168 HR” value [1, 4] was 2 and the “FLUORESCENCE - PERCENT POSITIVE 1 HR” value [2, 3] was 0%. For the same compound, the “FLUORESCENCE - PERCENT POSITIVE 2 HR” value [2, 3] was 0%, the “FLUORESCENCE - PERCENT POSITIVE 3 HR” value [2, 3] was 0% and the “FLUORESCENCE - PERCENT POSITIVE 4 HR” value [2, 3] was 0%. For the same compound, the “FLUORESCENCE - PERCENT POSITIVE 1 HR” value [2, 4] was 0%, the “FLUORESCENCE - PERCENT POSITIVE 2 HR” value [2, 4] was 0% and the “FLUORESCENCE - PERCENT POSITIVE 3 HR” value [2, 4] was 0%. The “FLUORESCENCE - PERCENT POSITIVE 4 HR” value [2, 4] was 0%.
In the case of OCC(O)COCC(O)COCC(O)COCC(O)COCC(O)COCC(O)CO (stereo not drawn) [Hexaglycerol], the “NO. GROWTH POSITIVE 168 HR” value [1, 7] is reported as 11, the “NO. GROWTH POSITIVE 168 HR” value [1, 8] is reported as 20 and the “NO. GROWTH POSITIVE 168 HR” value [1, 9] is reported as 18. The “NO. GROWTH POSITIVE 168 HR” value [1, 10] was 26, the “NO. GROWTH POSITIVE 168 HR” value [1, 11] was 24 and the “accuracy of sterilization indicators compared to indicators made with untreated spores” value [2] was “did not improve the accuracy”. For the same compound, the “FLUORESCENCE - PERCENT POSITIVE 1 HR” value [2, 7] was 0%, the “FLUORESCENCE - PERCENT POSITIVE 2 HR” value [2, 7] was 0% and the “FLUORESCENCE - PERCENT POSITIVE 3 HR” value [2, 7] was 0%. The “FLUORESCENCE - PERCENT POSITIVE 4 HR” value [2, 7] was 9.1%, the “FLUORESCENCE - PERCENT POSITIVE 5 HR” value [2, 7] was 45.5% and the “FLUORESCENCE - PERCENT POSITIVE 6 HR” value [2, 7] was 63.6%. For the same compound, the “FLUORESCENCE - PERCENT POSITIVE 1 HR” value [2, 8] was 0%, the “FLUORESCENCE - PERCENT POSITIVE 2 HR” value [2, 8] was 0% and the “FLUORESCENCE - PERCENT POSITIVE 3 HR” value [2, 8] was 5.0%. For the same compound, the “FLUORESCENCE - PERCENT POSITIVE 4 HR” value [2, 8] was 15.0%, the “FLUORESCENCE - PERCENT POSITIVE 5 HR” value [2, 8] was 35.0% and the “FLUORESCENCE - PERCENT POSITIVE 6 HR” value [2, 8] was 50.0%. For the same compound, the “FLUORESCENCE - PERCENT POSITIVE 1 HR” value [2, 9] was 0%, the “FLUORESCENCE - PERCENT POSITIVE 2 HR” value [2, 9] was 0% and the “FLUORESCENCE - PERCENT POSITIVE 3 HR” value [2, 9] was 11.1%. For the same compound, the “FLUORESCENCE - PERCENT POSITIVE 4 HR” value [2, 9] was 38.9%, the “FLUORESCENCE - PERCENT POSITIVE 5 HR” value [2, 9] was 50.0% and the “FLUORESCENCE - PERCENT POSITIVE 6 HR” value [2, 9] was 61.1%. For the same compound, the “FLUORESCENCE - PERCENT POSITIVE 1 HR” value [2, 10] was 0%, the “FLUORESCENCE - PERCENT POSITIVE 2 HR” value [2, 10] was 0% and the “FLUORESCENCE - PERCENT POSITIVE 3 HR” value [2, 10] was 26.9%. For the same compound, the “FLUORESCENCE - PERCENT POSITIVE 4 HR” value [2, 10] was 46.2%, the “FLUORESCENCE - PERCENT POSITIVE 5 HR” value [2, 10] was 53.8% and the “FLUORESCENCE - PERCENT POSITIVE 6 HR” value [2, 10] was 61.5%. The “FLUORESCENCE - PERCENT POSITIVE 1 HR” value [2, 11] was 0%, the “FLUORESCENCE - PERCENT POSITIVE 2 HR” value [2, 11] was 0% and the “FLUORESCENCE - PERCENT POSITIVE 3 HR” value [2, 11] was 37.5%. The “FLUORESCENCE - PERCENT POSITIVE 4 HR” value [2, 11] was 58.3%, the “FLUORESCENCE - PERCENT POSITIVE 5 HR” value [2, 11] was 70.8% and the “FLUORESCENCE - PERCENT POSITIVE 6 HR” value [2, 11] was 70.8%.
